Results: patent US20240293405A1, “(1H-PYRROLO[2,3-B]PYRIDIN-1-YL)PYRIMIDIN-2-YL-AMINO-PHENYL-ACRYLAMIDE INHIBITORS OF EGFR FOR USE IN THE TREATMENT OF BRAIN TUMORS” (Dana-Farber Cancer Institute, Inc., priority 2021, published 2024)
Values joined by “and” are separate entries in the source; they are usually repeats but may differ in a detail not shown here. Equal values may be shown once. “Also recorded” adds a separate entry of the source. Read-outs that look alike come from different tables or passages of the source.

Tests used:
[1] = tested on: PC9GR4 cells (Ex19del/T790M); settings: PC9GR4 cell line; Wang 2020; read-out: IC50, growth inhibition; cited from earlier work
Respiratory rate = format: in vivo; settings: dog, PO up to 100 mg/kg
[2] = Brain and plasma exposure after single oral dose; format: in vivo, Sprague Dawley rats; settings: Compound 1 30 mg/kg PO, 30 mg/kg; for concentration at 7 h / Kp at 7 h / concentration at 3 h: Sprague Dawley, rat, po; for Kp at 7 h: read-out: Brain/Plasma (ratios)
[3] = Comparative plasma protein binding; format: in vitro ADME; settings: human, monkey, dog, rat, mouse, across species, independent of concentration, read-out: plasma protein bound
Text: Compound 1 was highly protein bound (95.6 to 98.7%) to plasma protein across species. Binding was independent of concentration.

[4] = Plasma, brain and lung levels after 7 days oral dosing; format: in vivo, Sprague Dawley Rats; settings: Sprague Dawley, rat, 24 hrs after last dosing
[5] = tested on: H1975 cells (L858R/T790M); settings: Wang 2020, read-out: IC50, growth inhibition; cited from earlier work
Caco-2 cells = test: Permeation and absorption in Caco-2 cells; format: in vitro ADME
Text: Further understanding of DDI risk will await definition of Phase 2 doses and exposures.

[6] = CNS functional observational battery; format: in vivo; settings: rat, PO up to 100 mg/kg
[7] = Brain and plasma exposure after 5 hour intravenous infusion; format: in vivo, Sprague Dawley rats; settings: for Kp at 5 h / concentration at 5 h / concentration at 0.083 h / concentration at 1 h / concentration at 2 h / concentration at 3 h: 3 mg/kg
Procedure: A single IV infustion for 5 hours was administered to each animal, which were then twice observed clinically (30 minutes to 1 hour post-posing and at the end of the study (TTerminal). Blood samples were collected at 5 time points from each animal over the 5 hour infusion period (5 minutes, 1 hour, 2, hours, 3 hours and TTerminal) and processed to plasma. Brains were collected at Tterminal (blotted, weighed, and snap frozen) and brain exposure was compared. […]

P-gp, Bcrp = test: Efflux liability; format: in vitro ADME; settings: Compound 1, own data
Text: Data obtained in a previously published report on brain penetration of EGFR TKIs in GMB was compared to brain penetrance data described herein (Table 5). […] Each of these drugs, with the exception of vizimpro, appeared to be a substrate of P-gp and Bcrp (efflux transporter proteins).

[8] = tested on: orthotopic U251-EGFRvIII tumors; test: Orthotopic U251-EGFRvIII xenograft in mice; format: in vivo, mouse
Procedure: Gefitinib and erlotinib were purchased from Selleck Chemicals. Lapatinib was purchased from MedChemexpress. […] Compound 1 was synthesized by Pharmaron (Wang et al., bioRxiv, 2020.2003.2009.984500). For in vitro studies, compounds were dissolved in DMSO. For in vivo studies, Compound 1 was dissolved in 10% NMP/90% PEG300 and administered by oral gavage at 37.5 mg/kg or 75 mg/kg daily.
Cells (100,000 cells resuspended in 1 μl PBS) were intracranially injected into the right striatum (0 mm anterior, 2 mm lateral, and 2.5 mm ventral to bregma) of 8-10 week-old ICR-SCID mice. Animals were monitored daily for development of neurological defects.
Cells were transduced with lentiviral luciferase (HIV-Luc-zsGreen, addgene #39196). Bioluminescence signals from luciferase-expressing cells in live mice were recorded 10 minutes after intraperitoneal injection of D-luciferin (80 mg/kg) (Gold Biotechnology) with IVIS Lumina III Imaging System (PerkinElmer). The signals were analyzed with Living Image Software (PerkinElmer).
To evaluate the in vivo activity of Compound 1 in GBM with mutant EGFR, U251-EGFRvIII GBM cells expressing luciferase was generated to facilitate monitoring drug response in vivo by bioluminescence-imaging analysis. […]

[9] = 3 mg/kg IV infusion over 5 h, 5 h, individual animal, Compound 2 as metabolite in Compound 1-dosed rats
[10] = Sprague Dawley, rat, brain, other: continuous intravenous infusion and oral dosing, rat, estimated steady state by continuous intravenous infusion and oral dosing, read-out: whole brain exposure relative to plasma

For `C=CC(=O)Nc1cc(Nc2nccc(-n3ccc4cccnc43)n2)c(OC)cc1N(C)CCN(C)C` [Compound 1, N-(5-((4-(1H-pyrrolo[2,3-b]pyridin-1-yl)pyrimidin-2-yl)amino)-2-((2-(dimethylamino)ethyl)(methyl)amino)-4-methoxyphenyl)acrylamide], the IC50 [1] is given as 3.66 nM, the “effects on respiratory rate” value (Respiratory rate) is given as “no adverse effects on respiratory rate” and the “Plasma Concentration” value ([2]; 3 hr, individual animal) is given as 181 ng/mL and 229 ng/mL and 273 ng/mL. For the same compound, the “Brain Tissue Concentration” value ([2]; 7 hr, individual animal) was 8280 ng/g and 5210 ng/g and 7400 ng/g, the “Brain/Plasma (ratios)” value ([2]; 7 hr, individual animal) was 31.2 and 26.4 and the “Plasma Concentration” value ([2]; 7 hr, individual animal) was 265 ng/mL and 197 ng/mL and 275 ng/mL. It also gave a concentration at 7 h ([2]; brain, 7 hr, individual animal, read-out: Brain Tissue Concentration) of 7400 ng/g, a Kp at 7 h ([2]; brain, 7 hr, individual animal) of 26.9 and a concentration at 7 h ([2]; brain, 7 hr, mean n=3, read-out: Brain Tissue Concentration) of 6960 ng/g. The Kp at 7 h ([2]; brain, 7 hr, mean n=3) was 28.3, the concentration at 3 h ([2]; plasma, 3 hr, individual animal) was 273 ng/mL and the concentration at 3 h ([2]; plasma, 3 hr, mean n=3) was 228 ng/mL. For the same compound, the concentration at 7 h ([2]; plasma, 7 hr, individual animal, read-out: Plasma Concentration) was 275 ng/mL, the concentration at 7 h ([2]; plasma, 7 hr, mean n=3, read-out: Plasma Concentration) was 246 ng/mL and the fraction unbound [3] was 0.013 to 0.044. It also gave a concentration at 24 h ([4]; brain, 10 mg/kg po qd 7 days, Female, read-out: Brain) of 39.8 ng/g, a concentration at 24 h ([4]; brain, 10 mg/kg po qd 7 days, Male, read-out: Brain) of 14.9 ng/g and a concentration at 24 h ([4]; brain, 50 mg/kg po qd 7 days, Female, read-out: Brain) of 3770 ng/g. For the same compound, the concentration at 24 h ([4]; brain, 50 mg/kg po qd 7 days, Male, read-out: Brain) was 2080 ng/g, the concentration at 24 h ([4]; lung, 10 mg/kg po qd 7 days, Female, read-out: Lung) was 1220 ng/g and the concentration at 24 h ([4]; lung, 10 mg/kg po qd 7 days, Male, read-out: Lung) was 329 ng/g. It also gave a concentration at 24 h ([4]; lung, 50 mg/kg po qd 7 days, Female, read-out: Lung) of 45000 ng/g, a concentration at 24 h ([4]; lung, 50 mg/kg po qd 7 days, Male, read-out: Lung) of 9710 ng/g and a concentration at 24 h ([4]; plasma, 10 mg/kg po qd 7 days, Female, read-out: Plasma) of 20.8 ng/mL. It also gave a concentration at 24 h ([4]; plasma, 10 mg/kg po qd 7 days, Male, read-out: Plasma) of 10.6 ng/mL, a concentration at 24 h ([4]; plasma, 50 mg/kg po qd 7 days, Female, read-out: Plasma) of 244 ng/mL and a concentration at 24 h ([4]; plasma, 50 mg/kg po qd 7 days, Male, read-out: Plasma) of 149 ng/mL. The IC50 [5] was 4.39 nM, the “permeability in Caco-2 cells” value (Caco-2 cells) was “Moderate permeability” and the “substrate of efflux transporters” value (Caco-2 cells) was “not likely a transporter substrate; also recorded: not likely a substrate of efflux transporters; also recorded: not a likely substrate of efflux transporters”. The “substrate of efflux transporters” value (Caco-2 cells; listed as Compound 11) was “unlikely that Compound 11 is a substrate of efflux transporters; also recorded: not a substrate”, the “CNS effects in functional observational battery” value [6] was “no adverse CNS effects” and the “Plasma Concentration” value ([7]; 3 mg/kg IV infusion over 5 h, 0.083 h, individual animal, Compound 2 as metabolite in Compound 1-dosed rats) was 14.2 ng/mL and 13.5 ng/mL and 12.8 ng/mL and 13.1 ng/mL and 11.3 ng/mL and 14.3 ng/mL. The “Plasma Concentration” value ([7]; 3 mg/kg IV infusion over 5 h, 1 h, individual animal, Compound 2 as metabolite in Compound 1-dosed rats) was 63.5 ng/mL and 54.8 ng/mL and 59.6 ng/mL and 44.2 ng/mL and 51.1 ng/mL and 63.0 ng/mL, the “Plasma Concentration” value ([7]; 3 mg/kg IV infusion over 5 h, 2 h, individual animal, Compound 2 as metabolite in Compound 1-dosed rats) was 93.4 ng/mL and 84.2 ng/mL and 81.6 ng/mL and 70.7 ng/mL and 71.9 ng/mL and 70.1 ng/mL and the “Plasma Concentration” value ([7]; 3 mg/kg IV infusion over 5 h, 3 h, individual animal, Compound 2 as metabolite in Compound 1-dosed rats) was 95.5 ng/mL and 93.7 ng/mL and 106 ng/mL and 89.5 ng/mL and 94.7 ng/mL and 120 ng/mL. The “Brain Tissue Concentration” value [7, 9] was 2380 ng/g and 2400 ng/g and 2020 ng/g and 2000 ng/g and 1980 ng/g and 2640 ng/g, the “Brain/Plasma (ratios)” value [7, 9] was 18.5 and 20.5 and 18.2 and the “Plasma Concentration” value [7, 9] was 107 ng/mL and 120 ng/mL and 109 ng/mL and 97.4 ng/mL and 119 ng/mL. The Kp at 5 h [7, 10] was > 20, the Kp [7, 10] was 20 and the concentration at 5 h ([7]; male, Sprague Dawley, rat, brain, intravenous, 3 mg/kg IV infusion over 5 h, 5 h, individual animal, Compound 2 as metabolite in Compound 1-dosed rats, read-out: Brain Tissue Concentration) was 2640 ng/g. It also gave a concentration at 5 h ([7]; male, Sprague Dawley, rat, brain, intravenous, 3 mg/kg IV infusion over 5 h, 5 h, mean n=6, Compound 2 as metabolite, read-out: Brain Tissue Concentration) of 2240 ng/g, a Kp at 5 h ([7]; male, Sprague Dawley, rat, brain, intravenous, rats with continuous infusion, read-out: brain/plasma ratio) of ~20 and a Kp at 5 h ([7]; male, Sprague Dawley, rat, brain, iv, 3 mg/kg IV infusion over 5 h, 5 h, individual animal, Compound 2 as metabolite in Compound 1-dosed rats, read-out: Brain/Plasma (ratios)) of 22.2. The Kp at 5 h ([7]; male, Sprague Dawley, rat, brain, iv, 3 mg/kg IV infusion over 5 h, 5 h, mean n=6, Compound 2 as metabolite, read-out: Brain/Plasma (ratios)) was 20.3, the concentration at 0.083 h ([7]; male, Sprague Dawley, rat, plasma, intravenous, 3 mg/kg IV infusion over 5 h, 0.083 h, individual animal, Compound 2 as metabolite in Compound 1-dosed rats) was 14.3 ng/mL and the concentration at 0.083 h ([7]; male, Sprague Dawley, rat, plasma, intravenous, 3 mg/kg IV infusion over 5 h, 0.083 h, mean n=6, Compound 2 as metabolite) was 13.2 ng/mL. The concentration at 1 h ([7]; male, Sprague Dawley, rat, plasma, intravenous, 3 mg/kg IV infusion over 5 h, 1 h, individual animal, Compound 2 as metabolite in Compound 1-dosed rats) was 63 ng/mL, the concentration at 1 h ([7]; male, Sprague Dawley, rat, plasma, intravenous, 3 mg/kg IV infusion over 5 h, 1 h, mean n=6, Compound 2 as metabolite) was 56 ng/mL and the concentration at 2 h ([7]; male, Sprague Dawley, rat, plasma, intravenous, 3 mg/kg IV infusion over 5 h, 2 h, individual animal, Compound 2 as metabolite in Compound 1-dosed rats) was 70.1 ng/mL. For the same compound, the concentration at 2 h ([7]; male, Sprague Dawley, rat, plasma, intravenous, 3 mg/kg IV infusion over 5 h, 2 h, mean n=6, Compound 2 as metabolite) was 78.7 ng/mL, the concentration at 3 h ([7]; male, Sprague Dawley, rat, plasma, intravenous, 3 mg/kg IV infusion over 5 h, 3 h, individual animal, Compound 2 as metabolite in Compound 1-dosed rats) was 120 ng/mL and the concentration at 3 h ([7]; male, Sprague Dawley, rat, plasma, intravenous, 3 mg/kg IV infusion over 5 h, 3 h, mean n=6, Compound 2 as metabolite) was 99.9 ng/mL. The concentration at 5 h ([7]; male, Sprague Dawley, rat, plasma, intravenous, 3 mg/kg IV infusion over 5 h, 5 h, individual animal, Compound 2 as metabolite in Compound 1-dosed rats, read-out: Plasma Concentration) was 119 ng/mL, the concentration at 5 h ([7]; male, Sprague Dawley, rat, plasma, intravenous, 3 mg/kg IV infusion over 5 h, 5 h, mean n=6, Compound 2 as metabolite, read-out: Plasma Concentration) was 110 ng/mL and the “Brain Penetration (% of B/P ratio in preclinical model)” value ([7]; own data, infusion in rats) was 2000% (infusion). For the same compound, the “Efflux Liability” value (P-gp, Bcrp) was “Not a substrate”, the “body weight during treatment” value ([8]; 37.5 and 75 mg/kg PO QD) was “stable body weight; also recorded: no significant body weight loss” and the “luminescence signals of tumors” value ([8]; 37.5 and 75 mg/kg, dose-dependent) was “reduced the luminescence signals”.
